Measured values published in article PMC8839615 (Molecules, 2022).
Structures can show the parent of a compound that is named as a salt.

Assays:
[1] = cited from earlier work
[2] = Pharmacokinetics study in rats after oral administration (plasma, LC-MS/MS); type: in vivo, Wistar rats; conditions: for CLZ / Cmax / VZ / half-life: mean ± SD, n = 6; for half-life: po
Procedure: The liquid chromatographic separation process was operated on an XR LC-20AD Prominence^TM UFLC system (Shimadzu, Japan). At a column temperature at 40 °C, substances were analyzed on an Atlantis T3 (2.1 × 150 mm, 3 μm) column. The mobile phase system was water with 0.1% formic acid (A) and methanol with 0.1% formic acid (B). A flow rate of 0.4 mL/min and sample injection volume of 5 μL were used for gradient elution. The gradient elution program was established as follows: 0.01–0.3 min, 5% B; 0.3–0.8 min, 5–50% B; 0.8–1.5 min, 50–70% B; 1.5–2.8 min, 70–85% B; 2.8–5.0 min, 85% B; 5.0–5.01 min, 85–5% B; and 5.01–7.0 min, 5% B.
Mass spectrometry quantitative analysis was conducted on a Q TRAP 4000 MS/MS system to collect data, and then analyst software (version 1.6, AB Sciex, Framingham, MA, USA) was used to handle data. In the MRM mode and taking nitrogen as the circulating gas, electrospray positive ionization (ESI+) was used to analyze four substances. The detailed MS parameters were established as follows: gas 1, 50 psi; gas 2, 40 psi; air curtain gas, 40 psi; ion spray voltage, 5500 V; ion source temperature, 500 °C. Declustering potential (DP), entrance potential (EP), collision energy (CE), and cell exit potential (CXP) were performed as parameters optimized for substances in the MRM mode.
(§1) The plasma and urine samples were kept at indoor temperature and dissolved before analysis. First, 100 µL of sample was added to a 1.5 mL Eppendorf tube together with 10 µL of ISs solution. Then, 300 µL of methanol:acetonitrile (1:1, v/v) was added, vortexed for 3 min, sonicated for 2 min in an ice-water bath, and centrifuged for 8 min at 16,000 rpm to deposit protein. The supernatant was transferred to a 1.5 mL Eppendorf tube, desiccated under airflow at room temperature, re-dissolved in 50 μL methanol, vortexed for 3 min, sonicated for 5 min in an ice-water bath, and centrifuged for 8 min at 16,000 rpm for LC-MS/MS analysis. For tissue and fecal samples, 100 mg of each sample was precisely weighed and added to a 5 mL Eppendorf tube, then mixed with 1 mL normal saline. The tissue cells were destructed by homogenization to mix with normal saline sufficiently, and the homogenization was achieved after centrifugation for 10 min at 4000 rpm. The methods to precipitate the protein of tissue and feces homogenization were the same as those of the plasma samples.
Eighteen male Wistar rats were separated into three groups with six rats in every group based on different oral medicines, containing a β-CD-DM group (inclusion compounds of DM with β-CD), DM group (single DM), and β-CD group (single β-CD). Each rat was administered to orally, and the dosage of every group was computed by the equal transformation of human and rat surface area of the body by the clinical dosage; therefore, 6 mg/kg of the β-CD-DM group (DM:β-CD(6 mg/kg:393 mg/kg) mixed evenly), 6 mg/kg of the DM group, and 393 mg/kg of the β-CD group were obtained. Blood samples (250 μL) were obtained from the orbital venous plexus at 0, 0.083, 0.25, 0.5, 0.75, 1, 1.5, 2, 4, 6, 8, 12, 24, 36 h after oral delivery. Then, the blood was centrifuged for 10 min at 4000 rpm to obtain the separation of plasma, and the plasma was stored in at −80 ℃ before application. The plasma samples of the rats in each group were treated according to the contents of Section 2.4.1, and then analyzed according to Section 2.2.1. The plasma concentrations of β-CD, DM, ginsenoside Re (IS 1), and psoralen (IS 2) were calculated by the ratio of peak area between analytes and internal standards. The pharmacokinetic parameters of the three groups of analytes were handled by adopting pharmacokinetic software DAS 2.1 found on non-compartment analysis. Then, the obtained main pharmacokinetic parameters of every group were used for independent sample T-test with SPSS v24.0; p < 0.05 was considered as a difference, and p < 0.01 was considered as a significant difference.

[3] = Tissue distribution study of β-CD in rats; type: in vivo, Wistar rats
Procedure: as §1, with “The methods to precipitate the protein of tissue and feces homogenization were the same as those of the plasma samples.” left out
Eighteen male Wistar rats were separated into three groups with six rats in every group based on different times after administration, containing group A (30 min after oral administration), group B (1h after oral administration), and group C (4 h after oral administration). […] The tissue homogenization samples of the rats in each group were treated according to the contents of Section 2.4.1, and then analyzed according to Section 2.2.1.

[4] = analyte DM in rat plasma, DM group (single DM), 6 mg/kg oral
[5] = analyte DM in rat plasma, β-CD-DM group (inclusion compounds, DM:β-CD 6 mg/kg:393 mg/kg) oral
[6] = analyte β-CD in rat plasma, β-CD group (single β-CD), 393 mg/kg oral
[7] = analyte β-CD in rat plasma, β-CD-DM group (inclusion compounds, DM:β-CD 6 mg/kg:393 mg/kg) oral

COc1ccc2c(c1)[C@]13CCCC[C@@H]1[C@H](C2)N(C)CC3 [DM, Dextromethorphan hydrobromide, reference compound]
water solubility [1]: poorly water-soluble | CLZ [2, 4]: 6.55 × 10^1 ± 8.60 L/h/Kg | Cmax [2, 4]: 2.91 × 10^1 ± 3.17 ng/mL/h | VZ [2, 4]: 1640 ± 996 L/kg | CLZ [2, 5]: 44.1 ± 12.5 L/h/kg | Cmax [2, 5]: 3.27 × 10^1 ± 4.67 ng/mL/h | VZ [2, 5]: 1900 ± 643 L/kg | half-life ([2]; male, Wistar, rat, in vivo, 6 mg/kg, analyte DM in rat plasma, DM group (single DM), 6 mg/kg oral): 16.8 h | half-life ([2]; male, Wistar, rat, in vivo, 6 mg/kg, analyte DM in rat plasma, β-CD-DM group (inclusion compounds, DM:β-CD 6 mg/kg:393 mg/kg) oral): 30.4 h

OC[C@H]1O[C@@H]2O[C@H]3[C@H](O)[C@@H](O)[C@@H](O[C@H]4[C@H](O)[C@@H](O)[C@@H](O[C@H]5[C@H](O)[C@@H](O)[C@@H](O[C@H]6[C@H](O)[C@@H](O)[C@@H](O[C@H]7[C@H](O)[C@@H](O)[C@@H](O[C@H]8[C@H](O)[C@@H](O)[C@@H](O[C@H]1[C@H](O)[C@H]2O)O[C@@H]8CO)O[C@@H]7CO)O[C@@H]6CO)O[C@@H]5CO)O[C@@H]4CO)O[C@@H]3CO [β-CD, β-cyclodextrin]
CLZ [2, 6]: 32.7 ± 10.2 L/h/kg | VZ [2, 6]: 400 ± 176 L/kg | CLZ [2, 7]: 3.03 × 10^1 ± 6.18 L/h/Kg | VZ [2, 7]: 354 ± 71.6 L/kg | half-life ([2]; male, Wistar, rat, plasma, 393 mg/kg, analyte β-CD in rat plasma, β-CD group (single β-CD), 393 mg/kg oral): 8.33 ± 2.46 h | half-life ([2]; male, Wistar, rat, plasma, 393 mg/kg, analyte β-CD in rat plasma, β-CD-DM group (inclusion compounds, DM:β-CD 6 mg/kg:393 mg/kg) oral): 8.21 ± 1.47 h | concentration at 30 min ([2]; male, Wistar, rat, plasma, 30 min after oral administration, 393 mg/kg, read-out: concentration of β-CD in rat plasma): ~3500 ng/mL | concentration at 1 h ([2]; male, Wistar, rat, plasma, 1 h after oral administration, 393 mg/kg, tissue concentration similar, read-out: concentration of β-CD in rat plasma): ~3000 ng/mL | AUC0–t as share of AUC0–∞ ([2]; β-CD in rat plasma, oral, sampling to 36 h): more than 96% | time until almost wholly removed from rat plasma ([2]; β-CD, oral administration): ≤ 36 h | time at which concentration in entire tissues reached its peak ([3]; 393 mg/kg single oral, heart, liver, spleen, lung, kidney, sampled 30 min, 1 h, 4 h): 1 h | accumulation in tissues ([3]; 4 h after 393 mg/kg single oral, tissue concentration decreased significantly): without noticeable accumulation
